Data: patent US8088733B2 (Tranzyme Pharma Inc., priority 2006, dated 2012)

Tests used:
fasted Wistar rats = assay: Gastric emptying of a phenol red-labelled methylcellulose meal in fasted naive rats (model for gastroparesis); format: in vivo, rat; details: for increase in gastric emptying relative to the vehicle control group: 15 min after meal; for potency in gastric emptying compared to metoclopramide, based on the different dose levels: dose-dependent, FIG. 2
Method: To examine the effects of compounds of the invention in a model for gastroparesis, compounds were evaluated for possible effects on gastric emptying in fasted rats as described below.
GHRP-6 and test samples were dissolved in vehicle of 9% HPBCD/0.9% NaCl. Immediately following oral administration of methylcellulose (2%) containing phenol red (0.05%) (2 mL/rat), test substances or vehicle (9% HPBCD/0.9% NaCl) were each administered intravenously (i.v.) at a dosing volume of 5 mL/kg.
Test substances were each administered intravenously to a group of 5 O/N-fasted Wistar derived male rats weighing 200±20 g immediately after methylcellulose (2%) containing phenol red (0.05%) was administered orally at 2 mL/animal. The animals were then sacrificed 15 minutes later. The stomach was immediately removed, homogenized in 0.1 N NaOH (5 mL) and centrifuged. Following protein precipitation by 20% trichloroacetic acid (0.5 mL) and re-alkalization of the supernatant with 0.1 N NaOH, total phenol red remaining in the stomach was determined by a colorimetric method at 560 nm. A 30 percent or more (≧30%) increase in gastric emptying, detected as the decrease in phenol red concentration in the stomach relative to the vehicle control group, is considered significant.
• 1. To ascertain data for representative compounds 25 and 298 as prokinetic agents with potent effects on gastric emptying, a model for gastroparesis. Methods • 1. Overnight-fasted rats (male, Wistar, ˜200 g, N=5/group) were given a meal of methylcellulose (2%) by intragastric gavage. The meal was labeled with phenol red (0.05%). • 2. […] Animals were sacrificed 15 minutes later; the stomach was immediately removed and homogenized in 0.1 N NaOH and centrifuged. • 4. Total phenol red remaining in the stomach was quantified by a colorimetric method at 560 nm. • 5. A >30% increase in gastric emptying, detected based on the phenol red concentration in comparison to the control group, is considered significant. Results

rats dosed with morphine = assay: Rat model of opioid-induced bowel dysfunction (morphine-delayed gastric emptying and small intestinal transit); format: in vivo; details: morphine 3 mg/kg s.c.
From the text: Opioid analgesics, such as morphine, are well known to delay gastrointestinal transit, which is a noted side effect for this class of drugs. (Greenwood-van Meerveld, B.; Gardner, C. J.; Little, P. J.; Hicks, G. A.; DeHaven-Hudkins, D. L. Preclinical studies of opioids and opioid antagonists on gastrointestinal function. Neurogastroenterol. Motil. 2004, 16, 46-53.) The clinical term for this syndrome is opioid-induced bowel dysfunction (OBD). The aim of this study was to determine whether test compounds can effectively reverse morphine-induced delayed gastric emptying and small intestinal transit in a rat model of opioid-induced bowel dysfunction.
• 1. Rats (male, Sprague-Dawley, 250-300 g, N=6-7/gp) were implanted with jugular vein catheters to accommodate dosing of test articles. • 2. Overnight-fasted rats were administered morphine by sub-cutaneous injection (3 mg/kg). • 3. After 60 minutes, rats were dosed (i.v. bolus) with vehicle, test compound (0.30, 1.0 mg/kg) or GHRP-6 (0.02 mg/kg) followed by intragastric gavage of ^99mTc methylcellulose (2%) meal. • 4. After 15 minutes, the rats were euthanized and the stomach and consecutive 10 cm segments of the intestine are isolated. Radioactivity (^99mTc) in each tissue isolate is measured as a means of measuring gastric emptying and small intestinal transit. • 5. One-way ANOVA, Dunnet's post-hoc statistical test was applied. • 6.
• 1. […] Methods • 1. Rats (male, Sprague-Dawley, 250-300 g) were implanted with jugular vein catheters to accommodate dosing of test articles. • 2. Overnight-fasted rats were administered morphine (3 mg/kg s.c.). • 3. […] After 15 min, the rats were euthanized and the stomach and consecutive 10 cm segments of the intestine are isolated. Radioactivity (^99mTc) in each tissue isolate was measured as a means of measuring the transit of the meal. • 5. Results

[1] = test system: POI rats concurrently dosed with morphine; assay: Combination rat model of post-operative ileus and opioid-induced bowel dysfunction; format: in vivo
[2] = GHRP-6 0.02 mg/kg i.v., mean ± sem

Compound: CCN(CC)CCNC(=O)c1cc(Cl)c(N)cc1OC [metoclopramide, reference compound]
- increase in gastric emptying relative to the vehicle control group (fasted Wistar rats; 10 mg/kg i.v.): 41%

Compound: GHRP-6
- Geometric Center (rats dosed with morphine; [2]): 3.38 ± 0.76
- Intragastric Residue (%) (rats dosed with morphine; [2]): 0.48 ± 0.10%
- increase in gastric emptying relative to the vehicle control group (fasted Wistar rats; 20 μg/kg i.v.): 40%

Compound: C[C@@H]1CN[C@@H](C2CC2)C(=O)N(C)[C@H](C)C(=O)N[C@H](Cc2ccc(F)cc2)C(=O)NCCCc2ccccc2O1 [Compound 298]
- gastric emptying ([1]; 0.1, 0.3, 1, 3 mg/kg i.v., FIG. 8): significantly accelerates
- small intestinal transit ([1]; 0.1, 0.3, 1, 3 mg/kg i.v., FIG. 9): significantly accelerates
- lowest dose level effective at restoring GI motility ([1]; combination of POI and OBD): 0.1 mg/kg
- potency in gastric emptying compared to metoclopramide, based on the different dose levels (fasted Wistar rats): ~100 fold

Compound: CN1CC[C@]23c4c5ccc(O)c4O[C@H]2[C@@H](O)C=C[C@H]3[C@H]1C5 [morphine]
- gastric emptying and small intestinal transit (rats dosed with morphine; preliminary study): significantly delayed

Compound: CCC(C)[C@@H]1NCCOc2ccccc2CCCNC(=O)[C@@H](Cc2ccc(Cl)cc2)NC(=O)[C@@H](C)N(C)C1=O (stereo partly drawn) [Compound 25]
- gastric emptying (fasted Wistar rats; 30 μg/kg): significant gastric emptying
- increase in gastric emptying relative to the vehicle control group (fasted Wistar rats; 100 μg/kg i.v.): 39%
- potency in gastric emptying compared to metoclopramide, based on the different dose levels (fasted Wistar rats): ~100 fold
